According to ChEMBL document CHEMBL1152119, “4-(3-furyl)-2-(4-methylpiperazino)pyrimidines: Potent 5-HT2A receptor antagonists” (Bioorg Med Chem Lett, 1997):
Calls of active or inactive are those of the source. The calls are words filed in the database; no cut-off is given here.

What was measured:
[1] = biological target: 5-hydroxytryptamine receptor 2A (Rattus norvegicus, UniProt P14842); test: Displacement of [3H]ketanserin from 5-hydroxytryptamine 2A receptor of rat brain cortex
[2] = biological target: T1, 5-hydroxytryptamine receptor 1A (Rattus norvegicus, UniProt P19327); test: Displacement of [3H]8-OH-DPAT binding to 5-hydroxytryptamine 1A receptor of rat brain hippocampus; type: tissue-based
T1 sequence (P19327 whole entry): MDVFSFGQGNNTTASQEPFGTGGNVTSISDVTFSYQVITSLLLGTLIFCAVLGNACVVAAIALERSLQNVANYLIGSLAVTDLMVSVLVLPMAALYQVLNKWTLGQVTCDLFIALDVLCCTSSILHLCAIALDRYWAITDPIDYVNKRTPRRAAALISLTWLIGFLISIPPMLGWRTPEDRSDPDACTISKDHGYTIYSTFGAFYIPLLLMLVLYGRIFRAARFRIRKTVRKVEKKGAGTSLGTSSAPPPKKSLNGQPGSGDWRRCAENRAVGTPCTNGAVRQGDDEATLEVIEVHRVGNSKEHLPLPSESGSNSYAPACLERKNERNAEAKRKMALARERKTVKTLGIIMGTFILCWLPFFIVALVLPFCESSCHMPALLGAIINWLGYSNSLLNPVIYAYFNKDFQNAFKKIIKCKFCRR

Mus musculus = test: Inhibitory dose against (+/-)DOI induced (2.5 mg/kg, ip) head twitch response in mice; type: functional; conditions: read-out: ID50 (the source's name)
Rattus norvegicus [3] = test: Percent activity for blocking of discriminative property stimulated by (+/-) DOI in rats at 10 mg/kg(+/-DOI 0.35 mg/kg administered to animals pretreated with compound); type: functional
Rattus norvegicus [4] = test: Number of responding rats/number of rats to receive the compound at a dose of 10 mg/kg, +/-DOI 0.35 mg/kg was administered intraperitoneally 60 min before test; 7/7; type: functional, organism-based
Rattus norvegicus [5] = test: Blocking of discriminative property stimulated by DOI in rats at 10 mg/kg dose, activity expressed as response/min(+/-DOI 0.35 mg/kg administered to animals pretreated with compound); type: functional
Rattus norvegicus [6] = test: Percent activity for blocking of discriminative property stimulated by (+/-) DOI in rats at 5 mg/kg(+/-DOI 0.35 mg/kg administered to animals pretreated with compound); type: functional
Rattus norvegicus [7] = test: Number of responding rats/number of rats to receive the compound at a dose of 5 mg/kg, +/-DOI 0.35 mg/kg was administered intraperitoneally 60 min before test; 9/9; type: functional, organism-based
Rattus norvegicus [8] = test: Number of responding rats/number of rats to receive the compound at a dose of 10mg/kg, +/-DOI 0.35 mg/kg was administered intraperitoneally 60 min before test; 6/6; type: functional, organism-based; parameters: dose 0.35 mg/kg
Rattus norvegicus [9] = test: Blocking of discriminative property stimulated by DOI in rats at 5 mg/kg dose, activity expressed as response/min(+/-DOI 0.35 mg/kg administered to animals pretreated with compound); type: functional
Rattus norvegicus [10] = test: Percent activity for blocking of discriminative property stimulated by (+/-) DOI in rats at 1 mg/kg(+/-DOI 0.35 mg/kg administered to animals pretreated with compound); type: functional
Rattus norvegicus [11] = test: Number of responding rats/number of rats to receive the compound at a dose of 1 mg/kg, +/-DOI 0.35 mg/kg was administered intraperitoneally 60 min before test; 9/9; type: functional, organism-based
Rattus norvegicus [12] = test: Blocking of discriminative property stimulated by DOI in rats at 1 mg/kg dose, activity expressed as response/min(+/-DOI 0.35 mg/kg administered to animals pretreated with compound); type: functional
Rattus norvegicus [13] = test: Percent activity for blocking of discriminative property stimulated by (+/-) DOI in rats at 20 mg/kg(+/-DOI 0.35 mg/kg administered to animals pretreated with compound); type: functional
Rattus norvegicus [14] = test: Number of responding rats/number of rats to receive the compound at a dose of 20 mg/kg, +/-DOI 0.35 mg/kg was administered intraperitoneally 60 min before test; 6/6; type: functional, organism-based
Rattus norvegicus [15] = test: Blocking of discriminative property stimulated by DOI in rats at 20 mg/kg dose, activity expressed as response/min(+/-DOI 0.35 mg/kg administered to animals pretreated with compound); type: functional
Rattus norvegicus [16] = test: Percent activity for blocking of discriminative property stimulated by (+/-) DOI in rats at 0.25 mg/kg(+/-DOI 0.35 mg/kg administered to animals pretreated with compound); type: functional
Rattus norvegicus [17] = test: Percent activity for blocking of discriminative property stimulated by (+/-) DOI in rats at 0.35 mg/kg(+/-DOI 0.35 mg/kg administered to animals pretreated with compound); type: functional
Rattus norvegicus [18] = test: Percent activity for blocking of discriminative property stimulated by (+/-) DOI in rats at 0.15 mg/kg(+/-DOI 0.35 mg/kg administered to animals pretreated with compound); type: functional
Rattus norvegicus [19] = test: Blocking of discriminative property stimulated by DOI in rats at 0.25 mg/kg dose, activity expressed as response/min(+/-DOI 0.35 mg/kg administered to animals pretreated with compound); type: functional
Rattus norvegicus [20] = test: Blocking of discriminative property stimulated by DOI in rats at 0.35 mg/kg dose, activity expressed as response/min(+/-DOI 0.35 mg/kg administered to animals pretreated with compound); type: functional
Rattus norvegicus [21] = test: Blocking of discriminative property stimulated by DOI in rats at 0.15 mg/kg dose, activity expressed as response/min(+/-DOI 0.35 mg/kg administered to animals pretreated with compound); type: functional
Rattus norvegicus [22] = test: Percent activity for blocking of discriminative property stimulated by (+/-) DOI in rats at 15 mg/kg(+/-DOI 0.35 mg/kg administered to animals pretreated with compound); type: functional
Rattus norvegicus [23] = test: Number of responding rats/number of rats to receive the compound at a dose of 10 mg/kg, +/-DOI 0.35 mg/kg was administered intraperitoneally 60 min before test; 8/8; type: functional, organism-based
Rattus norvegicus [24] = test: Number of responding rats/number of rats to receive the compound at a dose of 15mg/kg, +/-DOI 0.35 mg/kg was administered intraperitoneally 60 min before test; 7/7; type: functional, organism-based; parameters: dose 0.35 mg/kg
Rattus norvegicus [25] = test: Blocking of discriminative property stimulated by DOI in rats at 15 mg/kg dose, activity expressed as response/min(+/-DOI 0.35 mg/kg administered to animals pretreated with compound); type: functional

5-hydroxytryptamine receptor 2A, sequence (P14842 whole entry): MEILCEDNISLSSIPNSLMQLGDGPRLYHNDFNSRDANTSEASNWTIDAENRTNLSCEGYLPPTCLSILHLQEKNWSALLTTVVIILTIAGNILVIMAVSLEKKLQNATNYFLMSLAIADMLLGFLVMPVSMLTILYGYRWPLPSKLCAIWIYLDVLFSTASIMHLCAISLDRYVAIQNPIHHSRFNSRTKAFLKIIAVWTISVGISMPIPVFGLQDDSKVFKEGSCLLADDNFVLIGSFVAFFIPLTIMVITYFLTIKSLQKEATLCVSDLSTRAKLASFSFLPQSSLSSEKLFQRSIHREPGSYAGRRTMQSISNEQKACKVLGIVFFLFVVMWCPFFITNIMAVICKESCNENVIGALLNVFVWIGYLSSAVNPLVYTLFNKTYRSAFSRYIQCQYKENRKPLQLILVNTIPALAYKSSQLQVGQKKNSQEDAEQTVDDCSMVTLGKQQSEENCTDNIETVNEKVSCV

Structure (SMILES)	Ki [1] [nM]	Ki [2] [nM]	ED50 (Mus musculus) [mg/kg]	Activity (Rattus norvegicus [3]) [%]	Response (Rattus norvegicus [5]) [min⁻¹]	other results
CN1CCN(c2nccc(-c3ccccc3)n2)CC1	2100	613	–	–	–	–
Cc1cc(-c2ccoc2)nc(N2CCN(C)CC2)n1	50	265	–	–	–	–
CN1CCN(c2nc(-c3ccccc3)cc(-c3ccoc3)n2)CC1	9	1340	3.9	7.2	86.6	No. of animals (Rattus norvegicus [4]): Active
CN1CCN(c2nc(-c3ccoc3)cc(-c3ccoc3)n2)CC1	8	621	2.4	2.8	72.5	Activity (Rattus norvegicus [6]): 31.1%; No. of animals (Rattus norvegicus [7]): Active; No. of animals (Rattus norvegicus [8]): Active; Response (Rattus norvegicus [9]): 84.3 min⁻¹
CN1CCN(c2nccc(-c3ccco3)n2)CC1	745	810	–	–	–	–
CN1CCN(c2nccc(-c3cccs3)n2)CC1	208	484	–	–	–	–
CN1CCC(=C2c3ccccc3C=Cc3ccccc32)CC1 [CYPROHEPTADINE]	–	–	0.4	–	–	Activity (Rattus norvegicus [10]): 7.1%; No. of animals (Rattus norvegicus [11]): Active; Response (Rattus norvegicus [12]): 85.8 min⁻¹
CN1CCN(c2nc(-c3cccs3)cc(-c3cccs3)n2)CC1	8	972	–	–	–	–
CN1CCN(c2nccc(-c3ccoc3)n2)CC1	10	700	9.7	–	–	Activity (Rattus norvegicus [13]): 6.6%; No. of animals (Rattus norvegicus [14]): Active; Response (Rattus norvegicus [15]): 84.7 min⁻¹
COc1cc(CC(C)N)c(OC)cc1I (racemic)	–	–	–	–	–	Activity (Rattus norvegicus [16]): 63.1%; Activity (Rattus norvegicus [17]): 100%; Activity (Rattus norvegicus [18]): 37.5%; Response (Rattus norvegicus [19]): 79.5 min⁻¹; Response (Rattus norvegicus [20]): 74.7 min⁻¹; Response (Rattus norvegicus [21]): 81.3 min⁻¹
CN1CCN(c2nc(-c3ccoc3)cc(-c3cccs3)n2)CC1	10	2240	4.2	47.3	60.3	Activity (Rattus norvegicus [22]): 11.2%; No. of animals (Rattus norvegicus [23]): Active; No. of animals (Rattus norvegicus [24]): Active; Response (Rattus norvegicus [25]): 66.2 min⁻¹
CN1CCN(c2nc(-c3ccoc3)cc(-c3ccco3)n2)CC1	13	415	2.7	4	85.1	No. of animals (Rattus norvegicus [23]): Active
